In brackets after ≈: the same amount, converted by molar mass. Entries after “also recorded” stand apart in the source; their conditions may differ.
Columns and labels:
[1] = tested on: TNF-α, IFN-γ, TLR3, TLR4, TLR7, MyD88, NF-κB p65 and RIG-1 mRNA; design: species or system ICR mice; settings: mouse, in vivo
[2] = tested on: influenza A virus; settings: dog
[3] = tested on: influenza A virus; test: Antiviral activity assay in vitro with four ways of drug delivery (MTT, MDCK cells); type: cell-based, influenza virus A/PR8/34 (H1N1); settings: for EC50: Influenza A virus, MDCK; for antiviral effective rate (ER): final concentration 3.91 μg/ml
[4] = tested on: IL-6, IFN-β and TNF-α levels; type: cell-based, canine
[5] = tested on: influenza A virus (A PR/8/34); test: RT-PCR analysis of viral load in murine lung tissue; type: in vivo, ICR mice
Procedure: (§1) A total of 108 ICR mice were randomly divided into the control uninfected group, the control infected group, oseltamivir group, LEP-treated groups and DPEP-treated groups; 12 mice were designed in each group. Except for the mice in the control uninfected group, others were anaesthetized with ethyl ether and intranasally infected with 10LD50 influenza A virus (A PR/8/34) in a volume of 50 μl PBS to induce viral pneumonia. […] Meanwhile, the control uninfected group and the control infected group were only given saline with the same volume. […] The adult daily dose was converted into the high dose of mice, which was about 40 mg/kg. Based on the high dose of the drug, the medium and low doses were set.
In the 3rd and 7th days after infection, the left lung lobes from each mouse were washed with normal saline and stored at -80°C for RT-PCR and western blot analysis use. For RT-PCR analysis, the left lung was homogenized in precooled normal saline and centrifuged at 4000 rpm for 10 min at 4 °C. Total RNA was extracted using the High Pure Viral Nucleic Acid kit and cDNA was synthesized with the PrimeScript™ RT Master Mix kit. The specific steps of RT-PCR amplification were the same as the previous section in the present study. The related primers for mouse were designed by Sangon Biotech, Co., Ltd. (Shanghai, China) and are described in Table S2 .

[6] = tested on: influenza A virus; test: microbe, parasite or virus in culture; settings: MDCK, 48 h, read-out: Cell survival rate
[7] = tested on: influenza A virus; test: Viral load assay using real-time RT-PCR (M1 gene) and CPE in infected MDCK cells; type: cell-based, influenza virus A/PR8/34 (H1N1); settings: 24 and 48 h after administration; for viral load in MDCK cells vs control infected group: each dose group, P < 0.01 or P < 0.05
[8] = tested on: IL-1β, IL-6 and IL-10 in serum; type: in vivo, ICR mice; settings: 3rd and 7th day after infection; for IL-10 in serum: P < 0.01; for IL-1β in serum: P < 0.01 or P < 0.05; for IL-6 in serum: P > 0.05
Procedure: as §1
In days 3 and 7 post-infection, blood samples of six mice from each group were collected from retroorbital sinus under mild ethyl ether anesthesia before they were sacrificed, then under 4 °C they were centrifuged at 3000 rpm for 20 min to obtain serum. The levels of IL-1β, IL-6 and IL-10 in murine serum were determined by ELISA kits.

[9] = tested on: TLRs signaling pathway mRNA; type: cell-based, canine
[10] = tested on: influenza A virus (A PR/8/34); test: HE assay of lung tissue of infected mice; type: in vivo, ICR mice; settings: days 3 and 7 post-infection, 40, 20, 10 mg/kg
Procedure: as §1
In the 3rd and 7th days after infection, the right lung lobes from each mouse were washed with normal saline and immediately soaked in 10% normal buffered formalin for one week. Then the samples were dehydrated with ethanol and embedded in paraffin. The 4-μm-thick lung sections were stained with HE and the pathological changes of lung tissue were observed under the light microscope.

[11] = tested on: TLR4, TLR7, MyD88 and NF-κB p65 protein expression; design: species or system ICR mice; settings: mouse, in vivo
[12] = drug delivery way: Blocking viruses invading host cells
[13] = drug delivery way: Directly inhibiting virus
[14] = drug delivery way: Inhibiting the biosynthesis of virus
[15] = drug delivery way: Intervening the adsorption of virus
[16] = 3rd day after infection, three doses, P < 0.01 or P < 0.05
[17] = 7th day after infection, 40 and 20 mg/kg groups, P < 0.05

Compound	mRNA expression levels of TLR3, TLR4, TLR7, MyD88, NF-κB p65 and RIG-1 in lung tissue [1]	mRNA expression of IFN-γ in lung tissue [1]	mRNA expression of TNF-α in lung tissue [1]	cell viability rate [2] [%]	EC50 [3, 12] [µg/mL]	EC50 [3, 13] [µg/mL]	EC50 [3, 14] [µg/mL]	EC50 [3, 15] [µg/mL]	antiviral effective rate (ER) [3]	IL-6 level in cell supernatant vs control infected group [4]	level of IFN-β in cell supernatant vs control infected group [4]	secretion of TNF-α vs control infected group [4]	viral load in lung tissue vs control infected group [5, 16]	viral load in lung tissue vs control infected group [5, 17]	viability at 0.49 µg/mL [6] [%]	viability at 0.98 µg/mL [6] [%]	viability at 1.95 µg/mL [6] [%]	viability at 3.91 µg/mL [6] [%]	viability at 7.81 µg/mL [6] [%]	CPE of infected MDCK cells [7]	also measured
CN[C@@H](C)[C@H](O)c1ccccc1 [LEP, L-ephedrine]	obviously inhibited	significantly promoted	markedly inhibited	≥ 70	11 (≈ 66.3 µM)	6.28 (≈ 38 µM)	5.66 (≈ 34.3 µM)	7.15 (≈ 43.3 µM)	> 36.00%	significantly higher than that in the control infected group	significantly increase; also recorded: increased	significantly inhibited the secretion of TNF-α	significantly decreased	significantly reduced	42.6	51.6	57.8	61.5	67.2	significantly reduce the CPE	viral load in MDCK cells vs control infected group [7]: significantly decreased; IL-10 in serum [8]: accelerated the production of IL-10; IL-1β in serum [8]: dramatically inhibited the production of IL-1β; IL-6 in serum [8]: slightly increased; mRNA expression levels of TLR4 and TRAF3 [9]: inhibited; mRNA expression levels of TLR7, NF-κB p65, TLR3 and IRF3 [9]: significantly reduced; mRNA expression of IFN-β [9]: significantly increased; mRNA expression of MyD88 and TRAF6 [9]: marked decreased; mRNA expression of TLR4 and MyD88 [9]: significantly inhibited; mRNA expression of TRAF6 and TRAF3 [9]: decreased; histopathological responses of lung tissue [10]: attenuated the inflammation; inhibition effect on protein expression of TLR4 and TLR7 in lung tissue [11]: not obvious; protein expression levels of MyD88 and NF-κB p65 in lung tissue [11]: significantly down-regulated; protein expression levels of TLR4 and TLR7 in lung tissue [11]: Decreased; protein expression of TLR4, TLR7 and NF-κB p65 in comparison to oseltamivir [11]: dramatically inhibit
CN[C@@H](C)[C@@H](O)c1ccccc1 [DPEP, D-pseudoephedrine]	obviously inhibited	significantly promoted	markedly inhibited	≥ 70	8.17 (≈ 49.4 µM)	6.04 (≈ 36.6 µM)	4.67 (≈ 28.3 µM)	7.57 (≈ 45.8 µM)	more than 38.00%	significantly higher than that in the control infected group	significantly increase; also recorded: increased	significantly inhibited the secretion of TNF-α	significantly decreased	significantly reduced	45.3	54.7	61.2	63.9	72.5	significantly reduce the CPE	viral load in MDCK cells vs control infected group [7]: significantly decreased; IL-10 in serum [8]: accelerated the production of IL-10; IL-1β in serum [8]: dramatically inhibited the production of IL-1β; IL-6 in serum [8]: slightly increased; IFN-β mRNA expression compared with the oseltamivir group [9]: significantly increased; mRNA expression levels of MyD88, TRAF6 and TRAF3 [9]: obvious decreased; mRNA expression levels of NF-κB p65, TRAF3 and IRF3 compared with the oseltamivir group [9]: significantly reduced; mRNA expression levels of TLR7, NF-κB p65, TLR3 and IRF3 [9]: significantly reduced; mRNA expression levels of TRAF6 and TLR4 [9]: reduced; mRNA expression of IFN-β [9]: significantly increased; mRNA expression of MyD88 and TRAF3 [9]: significant decreased; mRNA expression of TLR4 [9]: significant decreased; histopathological responses of lung tissue [10]: attenuated the inflammation; inhibition effect on protein expression of TLR4 and TLR7 in lung tissue [11]: not obvious; protein expression levels of MyD88 and NF-κB p65 in lung tissue [11]: significantly down-regulated; protein expression levels of TLR4 and TLR7 in lung tissue [11]: Decreased; protein expression of TLR4, TLR7 and NF-κB p65 in comparison to oseltamivir [11]: dramatically inhibit

From publication PMC6747051, “Screening of Antiviral Components of Ma Huang Tang and Investigation on the Ephedra Alkaloids Efficacy on Influenza Virus Type A” (Frontiers in Pharmacology, 2019)
